Assay results reported in patent US20240376091A1, “THIADIAZOLEAMIDE DERIVATIVES AND THEIR APPLICATIONS” (ZHEJIANG UNIVERSITY, priority 2021, published 2024).

Biological target: T1, AR (Homo sapiens, UniProt P10275, T878A)
T1 construct: into the androgen-dependent PCa cells (LNCaP); endogenous in cells; host or cells: LNCaP-ARR2PB-eGFP
T1 sequence (P10275 1-920 T878A): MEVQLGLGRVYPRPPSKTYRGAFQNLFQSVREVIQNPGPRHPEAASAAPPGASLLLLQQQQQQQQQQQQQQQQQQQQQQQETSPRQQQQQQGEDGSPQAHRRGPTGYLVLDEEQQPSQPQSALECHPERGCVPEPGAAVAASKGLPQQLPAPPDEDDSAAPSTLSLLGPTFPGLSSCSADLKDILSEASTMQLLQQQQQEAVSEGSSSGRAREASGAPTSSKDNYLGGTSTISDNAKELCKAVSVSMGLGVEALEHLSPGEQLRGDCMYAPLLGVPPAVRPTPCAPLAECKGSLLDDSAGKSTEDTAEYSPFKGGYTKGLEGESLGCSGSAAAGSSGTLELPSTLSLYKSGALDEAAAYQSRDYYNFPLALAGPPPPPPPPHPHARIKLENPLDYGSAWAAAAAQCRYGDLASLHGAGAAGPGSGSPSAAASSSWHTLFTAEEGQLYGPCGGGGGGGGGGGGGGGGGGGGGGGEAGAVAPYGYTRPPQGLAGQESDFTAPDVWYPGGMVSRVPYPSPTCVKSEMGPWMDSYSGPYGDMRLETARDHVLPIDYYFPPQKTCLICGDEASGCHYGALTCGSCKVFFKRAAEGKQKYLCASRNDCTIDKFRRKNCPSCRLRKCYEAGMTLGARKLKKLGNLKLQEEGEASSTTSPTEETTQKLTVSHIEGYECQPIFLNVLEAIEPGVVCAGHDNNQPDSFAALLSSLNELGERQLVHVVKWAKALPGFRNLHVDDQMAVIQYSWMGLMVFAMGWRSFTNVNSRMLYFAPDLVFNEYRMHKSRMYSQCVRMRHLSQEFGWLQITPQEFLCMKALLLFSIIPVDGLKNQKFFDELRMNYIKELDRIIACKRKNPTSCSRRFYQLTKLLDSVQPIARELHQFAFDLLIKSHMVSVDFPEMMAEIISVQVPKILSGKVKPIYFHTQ
Experiment: AR transcriptional activity, LNCaP-ARR2PB-eGFP reporter cells
Assay type: cell-based
Conditions: read-out: IC50 AR transcriptional activities
Description: Detection principles: We conducted a stable transfection of promoter ARR2PB known for its strong AR responsiveness, into the androgen-dependent PCa cells (LNCaP). The expression of enhanced green fluorescent protein (eGFP) is depending on the degree of activation of AR. Therefore, LNCaP-ARR2PB-eGFP cell line could quantitatively determine the AR antagonistic activities of the compounds by evaluating the expression of eGFP.

IC50 [nM]	Structure (SMILES)
40	CC(=O)Cc1nsc(NC(=O)c2cc(-c3cccc([N+](=O)[O-])c3)oc2C)n1 [Compound A-2, 2-Methyl-5-(3-nitrophenyl)-N-(3-(2-oxopropyl)-1,2,4-thiadiazol-5-yl)furan-3-carboxamide]
320	CC(=O)Cc1nsc(NC(=O)c2cc(-c3cccc(C#N)c3)oc2C)n1 [Compound A-3, 5-(3-Cyanophenyl)-2-methyl-N-(3-(2-oxopropyl)-1,2,4-thiadiazol-5-yl)furan-3-carboxamide]
350	COc1cccc(-c2cc(C(=O)Nc3nc(CC(C)=O)ns3)c(C)o2)c1 [Compound A-4, 5-(3-Methoxyphenyl)-2-methyl-N-(3-(2-oxopropyl)-1,2,4-thiadiazol-5-yl)furan-3-carboxamide]
950	CC(=O)Cc1nsc(NC(=O)c2cc(-c3ccccc3)oc2C)n1 [Compound A-5, 2-Methyl-N-(3-(2-oxopropyl)-1,2,4-thiadiazol-5-yl)-5-phenylfuran-3-carboxamide]
130	CCOc1cccc(-c2cc(C(=O)Nc3nc(CC(C)=O)ns3)c(C)o2)c1 [Compound A-6, 5-(3-Ethoxyphenyl)-2-methyl-N-(3-(2-oxopropyl)-1,2,4-thiadiazol-5-yl)furan-3-carboxamide]
1160	CC(=O)Cc1nsc(NC(=O)c2cc(-c3cccc(F)c3)oc2C)n1 [Compound A-7, 5-(3-Fluorophenyl)-2-methyl-N-(3-(2-oxopropyl)-1,2,4-thiadiazol-5-yl)furan-3-carboxamide]
1710	CC(=O)Cc1nsc(NC(=O)c2cc(-c3cccc(Cl)c3)oc2C)n1 [Compound A-8, 5-(3-Chlorophenyl)-2-methyl-N-(3-(2-oxopropyl)-1,2,4-thiadiazol-5-yl)furan-3-carboxamide]
2360	CC(=O)Cc1nsc(NC(=O)c2cc(-c3cccc(Br)c3)oc2C)n1 [Compound A-9, 5-(3-Bromophenyl)-2-methyl-N-(3-(2-oxopropyl)-1,2,4-thiadiazol-5-yl)furan-3-carboxamide]
1240	CC(=O)Cc1nsc(NC(=O)c2cc(-c3ccc(Cl)c(Cl)c3)oc2C)n1 [Compound A-10, 5-(3,4-Dichlorophenyl)-2-methyl-N-(3-(2-oxopropyl)-1,2,4-thiadiazol-5-yl)furan-3-carboxamide]
4240	CC(=O)Cc1nsc(NC(=O)c2cc(-c3cccc4ccccc34)oc2C)n1 [Compound A-11, 2-Methyl-5-(naphthalen-1-yl)-N-(3-(2-oxopropyl)-1,2,4-thiadiazol-5-yl)furan-3-carboxamide]
3170	CC(=O)Cc1nsc(NC(=O)c2cc(-c3ccc4ccccc4c3)oc2C)n1 [Compound A-12, 2-Methyl-5-(naphthalen-2-yl)-N-(3-(2-oxopropyl)-1,2,4-thiadiazol-5-yl)furan-3-carboxamide]
480	CC(=O)Cc1nsc(NC(=O)c2cc(-c3cccc(OC(F)(F)F)c3)oc2C)n1 [Compound A-13, 2-Methyl-N-(3-(2-oxopropyl)-1,2,4-thiadiazol-5-yl)-5-(3-(trifluoromethoxy)phenyl)furan-3-carboxamide]
50	CC(=O)Cc1nsc(NC(=O)c2cc(-c3cccc(OC(F)F)c3)oc2C)n1 [Compound A-14, 5-(3-(Difluoromethoxy)phenyl)-2-methyl-N-(3-(2-oxopropyl)-1,2,4-thiadiazol-5-yl)furan-3-carboxamide]
1620	CC(=O)Cc1nsc(NC(=O)c2cc(-c3cccc(N)c3)oc2C)n1 [Compound A-24, 5-(3-Aminophenyl)-2-methyl-N-(3-(2-oxopropyl)-1,2,4-thiadiazol-5-yl)furan-3-carboxamide]
13600	CC(=O)Cc1nsc(NC(=O)c2cc(-c3cccc(NC(C)=O)c3)oc2C)n1 [Compound A-25, 5-(3-Acetamidophenyl)-2-methyl-N-(3-(2-oxopropyl)-1,2,4-thiadiazol-5-yl)furan-3-carboxamide]
3210	CC(=O)Cc1nsc(NC(=O)c2cc(-c3cccc(O)c3)oc2C)n1 [Compound A-26, 5-(3-Hydroxyphenyl)-2-methyl-N-(3-(2-oxopropyl)-1,2,4-thiadiazol-5-yl)furan-3-carboxamide]
5500	CC(=O)Cc1nsc(NC(=O)c2cc(-c3cccc(OC(C)=O)c3)oc2C)n1 [Compound A-27, 3-(5-Methyl-4-((3-(2-oxopropyl)-1,2,4-thiadiazol-5-yl)carbamoyl)furan-2-yl)phenyl acetate]
1030	CC(=O)Cc1nsc(NC(=O)c2cc(-c3cccc(C(N)=O)c3)oc2C)n1 [Compound A-28, 5-(3-Carbamoylphenyl)-2-methyl-N-(3-(2-oxopropyl)-1,2,4-thiadiazol-5-yl)furan-3-carboxamide]
940	CC(=O)Cc1nsc(NC(=O)c2cc(-c3cccc(C(=O)O)c3)oc2C)n1 [Compound A-29, 3-(5-Methyl-4-((3-(2-oxopropyl)-1,2,4-thiadiazol-5-yl)carbamoyl)furan-2-yl)benzoic acid]
5190	COC(=O)c1cccc(-c2cc(C(=O)Nc3nc(CC(C)=O)ns3)c(C)o2)c1 [Compound A-30, Methyl 3-(5-methyl-4-((3-(2-oxopropyl)-1,2,4-thiadiazol-5-yl)carbamoyl)furan-2-yl)benzoate]
6330	CC(=O)Cc1nsc(NC(=O)c2cc(-c3cccnc3)oc2C)n1 [Compound A-31, 2-Methyl-N-(3-(2-oxopropyl)-1,2,4-thiadiazol-5-yl)-5-(pyridin-3-yl)furan-3-carboxamide]
40	[2H]c1c(-c2cccc(C(F)(F)F)c2)oc(C)c1C(=O)Nc1nc(CC(C)=O)ns1 [Compound A-34, 2-Methyl-N-(3-(2-oxopropyl)-1,2,4-thiadiazol-5-yl)-5-(3-(trifluoromethyl)phenyl)furan-4-d-3-carboxamide]
720	[2H]c1c(-c2cccc(C#N)c2)oc(C)c1C(=O)Nc1nc(CC(C)=O)ns1 [Compound A-35, 5-(3-Cyanophenyl)-2-methyl-N-(3-(2-oxopropyl)-1,2,4-thiadiazol-5-yl)furan-4-d-3-carboxamide]
70	[2H]c1c(-c2cccc(OC(F)(F)F)c2)oc(C)c1C(=O)Nc1nc(CC(C)=O)ns1 [Compound A-36, 2-Methyl-N-(3-(2-oxopropyl)-1,2,4-thiadiazol-5-yl)-5-(3-(trifluoromethoxy)phenyl)furan-4-d-3-carboxamide]
30	[2H]c1c(-c2cccc(OC(F)F)c2)oc(C)c1C(=O)Nc1nc(CC(C)=O)ns1 [Compound A-37, 5-(3-(Difluoromethoxy)phenyl)-2-methyl-N-(3-(2-oxopropyl)-1,2,4-thiadiazol-5-yl)furan-4-d-3-carboxamide]
230	Cc1oc(-c2cccc(C(F)(F)F)c2)cc1C(=O)Nc1nc(CC(C)N2CCCC2)ns1 (stereo not shown) [Compound A-40, 2-Methyl-N-(3-(2-(pyrrolidin-1-yl)propyl)-1,2,4-thiadiazol-5-yl)-5-(3-(trifluoromethyl)phenyl)furan-3-carboxamide]
170	Cc1oc(-c2cccc(C(F)(F)F)c2)cc1C(=O)Nc1nc(CC(C)N2CCCCC2)ns1 (stereo not shown) [Compound A-41, 2-Methyl-N-(3-(2-(piperidin-1-yl)propyl)-1,2,4-thiadiazol-5-yl)-5-(3-(trifluoromethyl)phenyl)furan-3-carboxamide]
360	Cc1oc(-c2cccc(C(F)(F)F)c2)cc1C(=O)Nc1nc(CC(C)N2CCOCC2)ns1 (stereo not shown) [Compound A-42, 2-Methyl-N-(3-(2-morpholinopropyl)-1,2,4-thiadiazol-5-yl)-5-(3-(trifluoromethyl)phenyl) furan-3-carboxamide]
40	Cc1oc(-c2cccc(C(F)(F)F)c2)cc1C(=O)Nc1nc(CC(C)N2CCN(C)CC2)ns1 (stereo not shown) [Compound A-43, 2-Methyl-N-(3-(2-(4-methylpiperazin-1-yl)propyl)-1,2,4-thiadiazol-5-yl)-5-(3-(trifluoro-methyl)phenyl)furan-3-carboxamide]

Structure (SMILES)	IC50 [nM]
Cc1oc(-c2cccc(C(F)(F)F)c2)cc1C(=O)Nc1nc(CC(C)N(C)C)ns1 (stereo not shown) [Compound A-38, N-(3-(2-(dimethylamino)propyl)-1,2,4-thiadiazol-5-yl)-2-methyl-5-(3-(trifluoromethyl)phenyl)furan-3-carboxamide]	90
CCN(CC)C(C)Cc1nsc(NC(=O)c2cc(-c3cccc(C(F)(F)F)c3)oc2C)n1 (stereo not shown) [Compound A-39, N-(3-(2-(diethylamino)propyl)-1,2,4-thiadiazol-5-yl)-2-methyl-5-(3-(trifluoromethyl)phenyl)furan-3-carboxamide]	120
